This is an account of results in US9670374B2, “Water-based ink for inkjet printing” (KAO CORPORATION, priority 2013, dated 2017).

The nature of this data set: Measurement of 1-octanol/water partition coefficient (shake flask method). It is filed as physicochemical. How it is done: The 1-octanol/water partition coefficient of the diethylene glycol isopropyl ether was measured by a shake flask method prescribed in JIS Z7260-107.
First, 10 g of ion-exchanged water and 10 g of 1-octanol were charged into a 50 mL separating funnel, and shaken at 25° C. to establish an equilibrium therebetween. Then, 1 g of diethylene glycol isopropyl ether was charged into the separating funnel, and the contents of the separating funnel were intimately shaken and subjected to centrifugal separation to separate the mixture into a 1-octanol phase and a water phase. The amounts of the diethylene glycol isopropyl ether dissolved in the respective phases were quantitatively determined by gas chromatography, thereby obtaining a partition coefficient of the diethylene glycol isopropyl ether between the two phases. The log P vale was determined as a common logarithm of the partition coefficient.
The same measurement procedure as in the above item (i) was repeated except for using a solvent to be measured in place of the diethylene glycol isopropyl ether (c1), thereby obtaining a 1-octanol/water partition coefficient of the solvent.

The mark [1] stands for this setting: 1-octanol/water, shake flask method JIS Z7260-107, 25° C., log P as common logarithm, read-out: 1-octanol/water partition coefficient.
The mark [2] stands for this setting: shake flask method JIS Z7260-107, 25° C., log P as common logarithm.
Setting [3] is: shake flask method JIS Z7260-107, 25° C., log P as common logarithm, read-out: 1-octanol/water partition coefficient.

Where two headings read alike, the source gives them in different places.

As to `O=C1CCCN1` [2-pyrrolidone], the logP is -0.63.
As to `CCCCOCCOCCO` [Diethylene glycol monobutyl ether], the 1-octanol/water partition coefficient result is “ether (0.7)”.
As for `CC(C)OCCOCCO` [diethylene glycol isopropyl ether], under setting [1], the logP is 0.04. Moreover, the 1-octanol/water partition coefficient result under setting [2] is listed as “DEGPE (0.04)*^1”.
As to `CCOCCOCCO` [diethylene glycol monoethyl ether, Diethylene glycol monoethyl ether], under setting [1], the logP is -0.31. Further, the 1-octanol/water partition coefficient result under setting [2] is on record as “DEGEE (−0.31)”.
Regarding `COCCOCCO` [diethylene glycol monomethyl ether, Diethylene glycol monomethyl ether], under setting [2], the 1-octanol/water partition coefficient result was “DEGME (−0.85)”. Under setting [3], the logP was -0.85.
As to `OCCOCCO` [diethylene glycol], under setting [2], the 1-octanol/water partition coefficient result is reported as “Diethylene glycol (−1.39)”. The logP under setting [3] was -1.39.
As to `OCC(O)CO` [glycerol], the 1-octanol/water partition coefficient result was “Glycerol (≧−1.5)” and the logP was -1.5.
In the case of `CC(O)CO` (stereo not shown) [propylene glycol], the 1-octanol/water partition coefficient result was “Propylene glycol (−0.95)” and the logP is -0.95.
`OCCOCCOCCO` [triethylene glycol]: the 1-octanol/water partition coefficient entry was “Triethylene glycol (−1.45)” and the logP is -1.45.
